Some test systems named below: K-562 leukemia; MDA-MB-435; NCI-H226 lung; CAKI-1 renal; OVCAR-8 ovarian; SN12C renal; 786-0 renal; SF-295 CNS; A549 NSCLC; PC-3 prostate.
What all share (assay): inhibition of tumour cell growth, NCI panel, 48 h

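Results reflect a 48-hour exposure of cells in 96-well plates to compound at five concentrations. Here, GI50 denotes the concentration required for 50% inhibition of growth. TGI: total growth inhibition.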 Bounds are passed on as bounds.

`COc1cccc(-n2nc(C)c3c(N/N=C(\C)c4ccncc4)ncnc32)c1`: the GI50 was over 25 µM with K-562 leukemia; over 25 µM in the assay on MDA-MB-435; over 8.39 µM with NCI-H226 lung; over 25 µM with CAKI-1 renal; over 25 µM in the assay with OVCAR-8 ovarian; over 25 µM with SN12C renal. Moreover, the GI50 in the assay with 786-0 renal, in the assay on SF-295 CNS, with A549 NSCLC and with PC-3 prostate was over 25 µM in each case. For the same molecule, the TGI in the assay on K-562 leukemia, in the assay on MDA-MB-435, with NCI-H226 lung, with CAKI-1 renal, in the assay on OVCAR-8 ovarian and in the assay with SN12C renal was over 25 µM each time. Besides, the TGI in the assay with 786-0 renal, in the assay with SF-295 CNS, in the assay with A549 NSCLC and with PC-3 prostate was over 25 µM in each case.

As for `CC1OC(OC2C[C@](O)(C(=O)CF)Cc3c(O)c4c(c(O)c32)C(=O)c2ccccc2C4=O)CC(N)C1O` (stereo not given in full), the TGI in the assay on K-562 leukemia was 1.96 µM; in the assay on MDA-MB-435, 0.321 µM; in the assay on NCI-H226 lung it was under 0.0171 µM; in the assay on CAKI-1 renal it was 0.0763 µM; with OVCAR-8 ovarian it was 0.231 µM; in the assay on SN12C renal, 0.338 µM. The TGI was found to be 0.173 µM in the assay on 786-0 renal, 4.74 µM in the assay on SF-295 CNS, 0.173 µM in the assay with A549 NSCLC and 0.354 µM in the assay with PC-3 prostate.

Take `CN[C@H](C#Cc1c(F)ccc2c1/C(=C/c1[nH]ccc1OC)C(=O)N2)CO`: the GI50 is 0.989 µM with K-562 leukemia; 0.354 µM in the assay on MDA-MB-435; 0.41 µM with NCI-H226 lung; 0.0314 µM with CAKI-1 renal; 0.551 µM in the assay with OVCAR-8 ovarian; 0.2 µM in the assay with SN12C renal. For the same molecule, the GI50 was 0.462 µM with 786-0 renal, 0.946 µM in the assay on SF-295 CNS, 0.354 µM in the assay on A549 NSCLC and 1.03 µM in the assay with PC-3 prostate. Further, the TGI turned out to be 5.89 µM in the assay with K-562 leukemia; 2.82 µM with MDA-MB-435; 1.72 µM in the assay with NCI-H226 lung; 0.736 µM with CAKI-1 renal; 4.25 µM in the assay with OVCAR-8 ovarian; 25 µM with SN12C renal. The TGI was found to be 4.18 µM in the assay on 786-0 renal, 25 µM with SF-295 CNS, 2.82 µM in the assay on A549 NSCLC and 10.8 µM in the assay with PC-3 prostate.

On to `COc1cccc(-c2nn(-c3ccccc3)cc2-c2ccnc(NCCCNC(=O)Nc3ccc(Cl)c(Cl)c3)c2)c1`, for which the GI50 in the assay on K-562 leukemia was 2.38 µM; with MDA-MB-435, 2.01 µM; in the assay with NCI-H226 lung, 5.61 µM; in the assay with CAKI-1 renal it was 3.16 µM; in the assay on OVCAR-8 ovarian, 3.22 µM; with SN12C renal, 5.73 µM. Further, the GI50 with 786-0 renal is 1.82 µM; in the assay on SF-295 CNS, 2.38 µM; with A549 NSCLC, 3.79 µM; in the assay on PC-3 prostate, 3.96 µM. Also, the TGI was 5.33 µM with K-562 leukemia; 4.82 µM in the assay with MDA-MB-435; 41.6 µM with NCI-H226 lung; 15 µM in the assay on CAKI-1 renal; 13.4 µM with OVCAR-8 ovarian; 25 µM in the assay on SN12C renal. In addition, the TGI in the assay on 786-0 renal amounted to 3.97 µM; in the assay with SF-295 CNS, 6.43 µM; in the assay with A549 NSCLC, 13.4 µM; in the assay with PC-3 prostate it was 22.4 µM.

For `O=c1ccn(C2CC(O)C(CO)O2)c(=O)[nH]1` (stereo not given), the GI50 in the assay on K-562 leukemia, in the assay with MDA-MB-435, in the assay on NCI-H226 lung, with CAKI-1 renal, in the assay on OVCAR-8 ovarian and with SN12C renal was over 5000 µM throughout. In addition, the GI50 with 786-0 renal, in the assay on SF-295 CNS, in the assay on A549 NSCLC and in the assay on PC-3 prostate was over 5000 µM each time. The TGI in the assay on K-562 leukemia, with MDA-MB-435, in the assay with NCI-H226 lung, in the assay with CAKI-1 renal, with OVCAR-8 ovarian and in the assay with SN12C renal was over 5000 µM each time. Besides, the TGI with 786-0 renal, in the assay with SF-295 CNS, with A549 NSCLC and in the assay with PC-3 prostate was over 5000 µM each time.

Regarding `O=C1C(N2CC2)=C(N2CC2)C(=O)C(N2CC2)=C1N1CC1`, the GI50 was 0.785 µM with K-562 leukemia; 0.706 µM in the assay on MDA-MB-435; 0.157 µM with NCI-H226 lung; 0.0371 µM with CAKI-1 renal; 0.344 µM in the assay on OVCAR-8 ovarian; under 0.0228 µM in the assay on SN12C renal. Further, the GI50 in the assay with 786-0 renal is under 0.0285 µM; in the assay on SF-295 CNS, under 0.0211 µM; in the assay with A549 NSCLC, 0.059 µM; with PC-3 prostate, 0.863 µM. For the same molecule, the TGI was over 100 µM in the assay with K-562 leukemia; 2.3 µM in the assay with MDA-MB-435; 0.714 µM in the assay with NCI-H226 lung; 2.18 µM with CAKI-1 renal; 6.99 µM with OVCAR-8 ovarian; 1.45 µM with SN12C renal. In addition, the TGI was found to be 0.984 µM in the assay with 786-0 renal, 1 µM in the assay on SF-295 CNS, 0.428 µM in the assay with A549 NSCLC and 21.1 µM in the assay on PC-3 prostate.

Turning to `COc1cc2ccccc2oc1=O`, the TGI in the assay with K-562 leukemia, in the assay with MDA-MB-435, in the assay on NCI-H226 lung, in the assay on CAKI-1 renal, with OVCAR-8 ovarian and in the assay with SN12C renal was over 100 µM in each case. Besides, the TGI in the assay on 786-0 renal, in the assay on SF-295 CNS, with A549 NSCLC and in the assay on PC-3 prostate was over 100 µM in each case.

Consider `C=C1/C(=C\C=C2/CCC[C@]3(C)[C@@H]([C@H](C)CCCC(C)(C)O)CC[C@@H]23)C[C@@H](OC(=O)CBr)C[C@@H]1O`, for which the GI50 was 2.75 µM in the assay with K-562 leukemia; 4.22 µM with MDA-MB-435; 3.74 µM in the assay with NCI-H226 lung; 3.19 µM with CAKI-1 renal; 2.12 µM in the assay on OVCAR-8 ovarian; 4.93 µM in the assay on SN12C renal. In addition, the GI50 was 0.642 µM with 786-0 renal, 6.81 µM in the assay on SF-295 CNS, 6.26 µM in the assay on A549 NSCLC and 1.11 µM in the assay on PC-3 prostate. In addition, the TGI in the assay on K-562 leukemia is over 33.9 µM; in the assay with MDA-MB-435 it was 10.9 µM; in the assay on NCI-H226 lung, 22.1 µM; in the assay on CAKI-1 renal, 15.8 µM; in the assay with OVCAR-8 ovarian it was 30.5 µM; in the assay on SN12C renal, 11.9 µM. Moreover, the TGI was 1.89 µM in the assay with 786-0 renal, 20.3 µM in the assay on SF-295 CNS, 31.5 µM in the assay with A549 NSCLC and 5.88 µM with PC-3 prostate.

For the origin of these results see PubChem BioAssay (NCI).
